Laboratory results published in patent US5672715A, “Herbicidal substituted 3-aryl-pyrazoles” (Monsanto Company, priority 1995, dated 1997).
Read-outs that look alike come from different tables or passages of the source.

Assays:
Assay type in all cases: in vivo
Yellow Foxtail [1] = assay: pre-emergence herbicide test; details: Setaria, read-out: % plant inhibition; for inhibition at 200.072 g/ha: 0.1785 lb/A; for inhibition at 1000.92 g/ha: 0.893 lb/A
Outline: (§1)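 Read-out is percent inhibition at approximately 14 days after seeding and treating. Seeds sat on compacted topsoil beneath a cover layer containing compound in acetone or water, with greenhouse bottom-watering.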

Velvetleaf [2] = assay: pre-emergence herbicide test; details: Abutilon theophrasti, pre-emergence, read-out: % plant inhibition; for inhibition at 200.072 g/ha: 0.1785 lb/A; for inhibition at 1000.92 g/ha: 0.893 lb/A
Outline: as §1

Yellow Nutsedge [3] = assay: pre-emergence herbicide test; details: Cyperus, read-out: % plant inhibition; for inhibition at 200.072 g/ha: 0.1785 lb/A; for inhibition at 1000.92 g/ha: 0.893 lb/A
Outline: as §1

Morning Glory [4] = assay: pre-emergence herbicide test; details: Ipomoea, pre-emergence, read-out: % plant inhibition; for inhibition at 200.072 g/ha: 0.1785 lb/A; for inhibition at 1000.92 g/ha: 0.893 lb/A
Outline: as §1

Common Chickweed = assay: post-emergence herbicide test; details: post-emergence, read-out: % plant inhibition; for inhibition at 200.072 g/ha: 0.1785 lb/A; for inhibition at 1000.92 g/ha: 0.893 lb/A
Outline: (§2)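 Greenhouse pot test: seeds pressed into compacted topsoil in pans, covered, watered as needed; at two to three weeks plants were sprayed by atomizer at 170.3 kPa, 1870 L/Ha, with about 0.4% v/v emulsifier. Value is percent inhibition per species.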

Bedstraw Catchweed = assay: post-emergence herbicide test; details: Galium aparine, post-emergence, read-out: % plant inhibition; for inhibition at 200.072 g/ha: 0.1785 lb/A; for inhibition at 1000.92 g/ha: 0.893 lb/A
Outline: as §2

Yellow Foxtail [5] = assay: post-emergence herbicide test; details: Setaria, read-out: % plant inhibition; for inhibition at 200.072 g/ha: 0.1785 lb/A; for inhibition at 1000.92 g/ha: 0.893 lb/A
Outline: as §2

Soybean = assay: post-emergence herbicide test; details: Glycine max, post-emergence, read-out: % plant inhibition; for inhibition at 200.072 g/ha: 0.1785 lb/A; for inhibition at 1000.92 g/ha: 0.893 lb/A
Outline: as §2

Velvetleaf [6] = assay: post-emergence herbicide test; details: Abutilon theophrasti, post-emergence, read-out: % plant inhibition; for inhibition at 200.072 g/ha: 0.1785 lb/A; for inhibition at 1000.92 g/ha: 0.893 lb/A
Outline: as §2

Corn = assay: post-emergence herbicide test; details: Zea mays, post-emergence, read-out: % plant inhibition; for inhibition at 200.072 g/ha: 0.1785 lb/A; for inhibition at 1000.92 g/ha: 0.893 lb/A
Outline: as §2

Blackgrass = assay: post-emergence herbicide test; details: Alopecurus myosuroides, post-emergence, read-out: % plant inhibition; for inhibition at 200.072 g/ha: 0.1785 lb/A; for inhibition at 1000.92 g/ha: 0.893 lb/A; for inhibition at 5043.82 g/ha: 4.5 lb/A; for inhibition at 7.95803 g/ha: 0.0071 lb/A; for inhibition at 40.0143 g/ha: 0.0357 lb/A
Outline: as §2

Yellow Nutsedge [7] = assay: post-emergence herbicide test; details: Cyperus, read-out: % plant inhibition; for inhibition at 200.072 g/ha: 0.1785 lb/A; for inhibition at 1000.92 g/ha: 0.893 lb/A
Outline: as §2

Morning Glory [8] = assay: post-emergence herbicide test; details: Ipomoea, post-emergence, read-out: % plant inhibition; for inhibition at 200.072 g/ha: 0.1785 lb/A; for inhibition at 1000.92 g/ha: 0.893 lb/A
Outline: as §2

Cocklebur = assay: post-emergence herbicide test; details: Xanthium strumarium, post-emergence, read-out: % plant inhibition; for inhibition at 200.072 g/ha: 0.1785 lb/A; for inhibition at 1000.92 g/ha: 0.893 lb/A
Outline: as §2

Barnyardgrass = assay: post-emergence herbicide test; details: Echinochloa crus-galli, post-emergence, read-out: % plant inhibition; for inhibition at 200.072 g/ha: 0.1785 lb/A; for inhibition at 1000.92 g/ha: 0.893 lb/A
Outline: as §2

Wheat = assay: post-emergence herbicide test; details: Triticum aestivum, post-emergence, read-out: % plant inhibition; for inhibition at 200.072 g/ha: 0.1785 lb/A; for inhibition at 1000.92 g/ha: 0.893 lb/A
Outline: as §2

Cn1nc(-c2cc(F)ccc2F)c(C=O)c1C(F)(F)F [Compound 34]
inhibition at 200.072 g/ha (Yellow Foxtail [1]): 0% | inhibition at 1000.92 g/ha (Yellow Foxtail [1]): 0% | inhibition at 5043.82 g/ha (Yellow Foxtail [1]; 4.5 lb/A): 20% | inhibition at 200.072 g/ha (Velvetleaf [2]): 0% | inhibition at 1000.92 g/ha (Velvetleaf [2]): 15% | inhibition at 5043.82 g/ha (Velvetleaf [2]; 4.5 lb/A): 75% | inhibition at 200.072 g/ha (Yellow Nutsedge [3]): 0% | inhibition at 1000.92 g/ha (Yellow Nutsedge [3]): 0% | inhibition at 5043.82 g/ha (Yellow Nutsedge [3]; 4.5 lb/A): 20% | inhibition at 200.072 g/ha (Morning Glory [4]): 0% | inhibition at 1000.92 g/ha (Morning Glory [4]): 0% | inhibition at 5043.82 g/ha (Morning Glory [4]; 4.5 lb/A): 0% | inhibition at 200.072 g/ha (Common Chickweed): 0% | inhibition at 1000.92 g/ha (Common Chickweed): 0% | inhibition at 5043.82 g/ha (Common Chickweed; 4.5 lb/A): 0% | inhibition at 200.072 g/ha (Bedstraw Catchweed): 0% | inhibition at 1000.92 g/ha (Bedstraw Catchweed): 0% | inhibition at 5043.82 g/ha (Bedstraw Catchweed; 4.5 lb/A): 80% | inhibition at 200.072 g/ha (Yellow Foxtail [5]): 0% | inhibition at 1000.92 g/ha (Yellow Foxtail [5]): 0% | inhibition at 5043.82 g/ha (Yellow Foxtail [5]; 4.5 lb/A): 0% | inhibition at 200.072 g/ha (Soybean): 0% | inhibition at 1000.92 g/ha (Soybean): 10% | inhibition at 5043.82 g/ha (Soybean; 4.5 lb/A): 15% | inhibition at 200.072 g/ha (Velvetleaf [6]): 0% | inhibition at 1000.92 g/ha (Velvetleaf [6]): 0% | inhibition at 5043.82 g/ha (Velvetleaf [6]; 4.5 lb/A): 20% | inhibition at 200.072 g/ha (Corn): 0% | inhibition at 1000.92 g/ha (Corn): 0% | inhibition at 5043.82 g/ha (Corn; 4.5 lb/A): 15% | inhibition at 200.072 g/ha (Blackgrass; Table 4a): 0% | inhibition at 200.072 g/ha (Blackgrass; Table 5a): 0% | inhibition at 1000.92 g/ha (Blackgrass; Table 4a): 0% | inhibition at 1000.92 g/ha (Blackgrass; Table 5a): 0% | inhibition at 5043.82 g/ha (Blackgrass; Table 4a): 0% | inhibition at 5043.82 g/ha (Blackgrass; Table 5a): 30% | inhibition at 200.072 g/ha (Yellow Nutsedge [7]): 0% | inhibition at 1000.92 g/ha (Yellow Nutsedge [7]): 0% | inhibition at 5043.82 g/ha (Yellow Nutsedge [7]; 4.5 lb/A): 0% | inhibition at 200.072 g/ha (Morning Glory [8]): 0% | inhibition at 1000.92 g/ha (Morning Glory [8]): 0% | inhibition at 5043.82 g/ha (Morning Glory [8]; 4.5 lb/A): 55% | inhibition at 200.072 g/ha (Cocklebur): 0% | inhibition at 1000.92 g/ha (Cocklebur): 0% | inhibition at 5043.82 g/ha (Cocklebur; 4.5 lb/A): 25% | inhibition at 200.072 g/ha (Barnyardgrass): 0% | inhibition at 1000.92 g/ha (Barnyardgrass): 0% | inhibition at 5043.82 g/ha (Barnyardgrass; 4.5 lb/A): 10% | inhibition at 200.072 g/ha (Wheat): 0% | inhibition at 1000.92 g/ha (Wheat): 0% | inhibition at 5043.82 g/ha (Wheat; 4.5 lb/A): 10%

COc1cc(-c2nn(C)c(C(F)(F)F)c2C)c(F)cc1[N+](=O)[O-] [Compound 36]
inhibition at 7.95803 g/ha (Yellow Foxtail [1]; 0.0071 lb/A): 0% | inhibition at 40.0143 g/ha (Yellow Foxtail [1]; 0.0357 lb/A): 15% | inhibition at 200.072 g/ha (Yellow Foxtail [1]): 98% | inhibition at 1000.92 g/ha (Yellow Foxtail [1]): 100% | inhibition at 7.95803 g/ha (Velvetleaf [2]; 0.0071 lb/A): 20% | inhibition at 40.0143 g/ha (Velvetleaf [2]; 0.0357 lb/A): 20% | inhibition at 200.072 g/ha (Velvetleaf [2]): 98% | inhibition at 1000.92 g/ha (Velvetleaf [2]): 100% | inhibition at 7.95803 g/ha (Yellow Nutsedge [3]; 0.0071 lb/A): 0% | inhibition at 40.0143 g/ha (Yellow Nutsedge [3]; 0.0357 lb/A): 0% | inhibition at 200.072 g/ha (Yellow Nutsedge [3]): 0% | inhibition at 1000.92 g/ha (Yellow Nutsedge [3]): 0% | inhibition at 7.95803 g/ha (Morning Glory [4]; 0.0071 lb/A): 0% | inhibition at 40.0143 g/ha (Morning Glory [4]; 0.0357 lb/A): 10% | inhibition at 200.072 g/ha (Morning Glory [4]): 60% | inhibition at 1000.92 g/ha (Morning Glory [4]): 90% | inhibition at 7.95803 g/ha (Common Chickweed; 0.0071 lb/A): 85% | inhibition at 40.0143 g/ha (Common Chickweed; 0.0357 lb/A): 15% | inhibition at 200.072 g/ha (Common Chickweed): 35% | inhibition at 1000.92 g/ha (Common Chickweed): 65% | inhibition at 7.95803 g/ha (Bedstraw Catchweed; 0.0071 lb/A): 0% | inhibition at 40.0143 g/ha (Bedstraw Catchweed; 0.0357 lb/A): 25% | inhibition at 200.072 g/ha (Bedstraw Catchweed): 50% | inhibition at 1000.92 g/ha (Bedstraw Catchweed): 75% | inhibition at 7.95803 g/ha (Yellow Foxtail [5]; 0.0071 lb/A): 0% | inhibition at 40.0143 g/ha (Yellow Foxtail [5]; 0.0357 lb/A): 10% | inhibition at 200.072 g/ha (Yellow Foxtail [5]): 45% | inhibition at 1000.92 g/ha (Yellow Foxtail [5]): 70% | inhibition at 7.95803 g/ha (Soybean; 0.0071 lb/A): 15% | inhibition at 40.0143 g/ha (Soybean; 0.0357 lb/A): 25% | inhibition at 200.072 g/ha (Soybean): 35% | inhibition at 1000.92 g/ha (Soybean): 45% | inhibition at 7.95803 g/ha (Velvetleaf [6]; 0.0071 lb/A): 65% | inhibition at 40.0143 g/ha (Velvetleaf [6]; 0.0357 lb/A): 70% | inhibition at 200.072 g/ha (Velvetleaf [6]): 75% | inhibition at 1000.92 g/ha (Velvetleaf [6]): 100% | inhibition at 7.95803 g/ha (Corn; 0.0071 lb/A): 0% | inhibition at 40.0143 g/ha (Corn; 0.0357 lb/A): 25% | inhibition at 200.072 g/ha (Corn): 30% | inhibition at 1000.92 g/ha (Corn): 40% | inhibition at 7.95803 g/ha (Blackgrass; Table 4a): 0% | inhibition at 7.95803 g/ha (Blackgrass; Table 5a): 0% | inhibition at 40.0143 g/ha (Blackgrass; Table 4a): 0% | inhibition at 40.0143 g/ha (Blackgrass; Table 5a): 10% | inhibition at 200.072 g/ha (Blackgrass; Table 4a): 0% | inhibition at 200.072 g/ha (Blackgrass; Table 5a): 25% | inhibition at 1000.92 g/ha (Blackgrass; Table 4a): 0% | inhibition at 1000.92 g/ha (Blackgrass; Table 5a): 60% | inhibition at 7.95803 g/ha (Yellow Nutsedge [7]; 0.0071 lb/A): 0% | inhibition at 40.0143 g/ha (Yellow Nutsedge [7]; 0.0357 lb/A): 0% | inhibition at 200.072 g/ha (Yellow Nutsedge [7]): 0% | inhibition at 1000.92 g/ha (Yellow Nutsedge [7]): 25% | inhibition at 7.95803 g/ha (Morning Glory [8]; 0.0071 lb/A): 20% | inhibition at 40.0143 g/ha (Morning Glory [8]; 0.0357 lb/A): 40% | inhibition at 200.072 g/ha (Morning Glory [8]): 85% | inhibition at 1000.92 g/ha (Morning Glory [8]): 100% | inhibition at 7.95803 g/ha (Cocklebur; 0.0071 lb/A): 75% | inhibition at 40.0143 g/ha (Cocklebur; 0.0357 lb/A): 0% | inhibition at 200.072 g/ha (Cocklebur): 60% | inhibition at 1000.92 g/ha (Cocklebur): 98% | inhibition at 7.95803 g/ha (Barnyardgrass; 0.0071 lb/A): 0% | inhibition at 40.0143 g/ha (Barnyardgrass; 0.0357 lb/A): 0% | inhibition at 200.072 g/ha (Barnyardgrass): 45% | inhibition at 1000.92 g/ha (Barnyardgrass): 50% | inhibition at 7.95803 g/ha (Wheat; 0.0071 lb/A): 10% | inhibition at 40.0143 g/ha (Wheat; 0.0357 lb/A): 5% | inhibition at 200.072 g/ha (Wheat): 20% | inhibition at 1000.92 g/ha (Wheat): 25%
